Test system: cucumber phytophthora blight fungi (Phytophthora capsici)
Experiment: Test for controlling cucumber phytophthora blight fungi (titer plate growth test)
Format: cell-based
Details: 4.5 mg in 100 μL dimethyl sulfoxide, 1 μL portion plus 150 μL PDB medium with zoospores; 27° C., three days; absorbance at 600 nm; Efficacy=100×(X−Y)/X
Protocol: Test example 1: Test for controlling cucumber phytophthora blight fungi (Phytophthora capsici)
Four point five (4.5) milligrams of the present compound was diluted with 100 μL of dimethyl sulfoxide. One (1) μL portion of the diluted liquid was dispensed into a titer plate (96 wells), and thereto was then dispensed 150 μL of a potato dextrose broth medium (PDB medium) containing zoospores of cucumber phytophthora blight fungi (Phytophthora capsici). This plate was cultured at 27° C. for three days, thereby allowing the cucumber phytophthora blight fungi to undergo proliferation, and the absorbance at 600 nm of each well of the titer plate was then measured to determine a degree of growth of the cucumber phytophthora blight fungi. The efficacy was calculated from the determined degree of growth by the below-mentioned “Equation 1”. As a result, the efficacy of the Present compound was 90% or more. Efficacy=100×(X−Y)/X “Equation 1” where X: Degree of fungal growth in non-treated area Y: Degree of fungal growth in treated area
In the test example, a non-treated area means an area in which a test was conducted in the same manner, except that dimethyl sulfoxide was dispensed in place of the present compound diluted with dimethyl sulfoxide.

Compound	efficacy
CCOC(=O)COc1ncccc1Oc1cc(NC(N)=O)c(F)cc1Cl [Present compound]	≥ 90%
CCOC(=O)COc1ncccc1Oc1cc(NC(C)=O)c(F)cc1Cl [N-[4-chloro-2-fluoro-5-{2-(ethoxycarbonyl)methoxy-3-pyridyloxy}phenyl]acetamide]	less than 50%

Reference: patent publication US10624343B2, “Phenyl urea compound, and use thereof” (Sumitomo Chemical Company, Limited, priority 2016, dated 2020)
